Where two headings read alike, the source gives them in different places.

Assay [1] relates to HPV16-positive cells. Nature of the assay: HLA immunoprecipitation and LC-MS of peptides presented by HPV16-positive cells. It is filed as cell-based, human. Also noted: key: +: presentation: HLA-presentation of the peptide by HPV16-positive cells shown by MS. The following applies: HLA-presentation by HPV16-positive cells shown by MS. The method, then: HLA immunoprecipitation (IP) was performed according to previously published protocols (Bassani-Sternberg et al., 2016; Chong et al., 2018). Briefly, HPV16+ cells were lysed with a lysis buffer containing 1% N-octyl-β-D glucopyranoside, 0.25% Na-Deoxycholate, protease inhibitor cocktail (Sigma-Aldrich, Mannheim, Germany)/PMSF (Carl Roth, Karlsruhe, Germany) in PBS. After centrifugation at 40,000×g, 4° C., for 30 min. HLA-peptide complexes were immuno-precipitated by incubation with mouse anti-human HLA-A,B,C monoclonal antibody (clone W6/32, Biolegend, San Diego, CA, USA) or in some cases HLA-type-specific antibody (HLA-A2: clone BB7.2, HLA-A3: clone GAP A3, HLA-A11/A24: clone Hb 164, HLA-B7: clone BB7.1) crosslinked to protein G Sepharose beads (Cytiva, Marlborough, MA, USA) or Protein A—Sepharose™ 4B (Invitrogen Corporation, Camarillo, CA, USA) for 4 h at 4° C. under constant mixing on a rotating wheel. Supernatant was discarded after centrifugation at 3200×g, for 3 min at RT. Pelleted HLA-peptide complexes bound to antibody-beads were washed 3 times in each of the following steps: first with ice-cold 20 mM Tris-HCl pH 8 containing 150 mM NaCl followed by the same buffer but with additional […] and finally with 20 mM Tris-HCl alone. Peptides were eluted from antibody-beads bound to HLA by 0.3% TFA. Resulting peptides were desalted by reverse-phase purification using a SepPak 96-well plate (Waters, Milford, MA, USA). Peptides eluted in 28% ACN in 0.1% TFA were dried by vacuum centrifugation (Concentrator plus, Eppendorf, Hamburg, Germany).
The set of predicted target peptides were acquired as stable isotope labelled (SIL) peptides from commercial suppliers (crude synthesis product; isotope purity >99 atom % ^13C and ^15N). First, analysis by direct infusion was performed in order to optimize normalized collision energy (NCE) for each single peptide in a mixture. NCE values were ranging from 4% to 42% and each value, in 2% steps, was measured 4 times for four charge states (1+ to 4+) of each peptide. Orbitrap Exploris 480 (Thermo Fisher Scientific) in targeted MS2 scan (PRM) was operated using 30K resolution at 200 m/z, standard automated gain control (AGC) target, 350 ms maximum injection time (IT), 1 micro scan in centroid data acquisition mode. For all measurements, isolation window was 0.4, 0.7, 1 or 1.5 m/z, depending on the mass of the precursor, as recommended by the manufacturer. Ion chromatograms of all expected transitions were extracted with 12 ppm mass tolerance from the centroided spectra and deconvoluted using purpose-made R scripts. The best NCE value was selected so that the intensity of any 5th most intense transitions is maximized, thereby maximizing the chance of detecting at least 5 transitions. The retention time (RT) for each peptide was determined by LC-MS in DDA mode with an inclusion list of target peptides in all four charge-states. The MS resolution was set to 120K, 3e6 AGC target, 50 ms maximum IT and the LC operated as described below.
For LC-MS, samples were dissolved in 2.5 to 5 μl of 5% ACN in 0.1% TFA with 50 fmol of Peptide Retention Time Calibration (PRTC) Mixture (88321, Pierce™) spiked in, followed by 3 min bath sonication. All samples were analysed by liquid chromatography (U-3000, Thermo Fisher Scientific) coupled to Orbitrap Exploris 480 (Thermo Fisher Scientific). […]

Assay [2] concerns short-term antigen-specific T cell lines generated from PBMCs. Also noted: key: +: ELISPOT: Immungenicity of the peptide shown by IFN-gamma ELISPOT analysis. The following applies: immunogenicity by IFN-gamma ELISPOT, * data from published resources, cited from earlier work.
Assay [3] concerns HPV16-positive cells. Also noted: key: +: presentation: HLA-presentation of the peptide by HPV16-positive cells shown by MS. The following applies: HLA-presentation by HPV16-positive cells shown by MS; * data from published resources; cited from earlier work.
Assay [4] has as its system short-term antigen-specific T cell lines generated from PBMCs. Description: Interferon-γ ELISpot assay on short-term peptide-specific T cell lines from PBMCs. It is filed as cell-based, human. Also noted: key: +: ELISPOT: Immungenicity of the peptide shown by IFN-gamma ELISPOT analysis. To be noted: immunogenicity by IFN-gamma ELISPOT.

For the substance “1 (ISEYRHYCY; Human papillomavirus 16) [compound 1]”, the presentation entry in the assay on HPV16-positive cells [1] was “+”. Also, the ELISpot entry in assay [2] is on record as “+*”.
With “2 (YMLDLQPET; Human papillomavirus 16) [compound 2]”, the ELISpot entry in assay [2] is on record as “+*”. Besides, the presentation entry in the assay with HPV16-positive cells [3] is given as “+*”.
For the substance “3 (TTLEQQYNK; Human papillomavirus 16) [compound 3]”, the presentation result with HPV16-positive cells [1] is on record as “+”. Moreover, in assay [4], the ELISpot result is “+”.
As for “4 (RAHYNIVTF; Human papillomavirus 16) [compound 4]”, the presentation result in the assay on HPV16-positive cells [1] is “+”. In addition, the figures for the ELISpot entry in assay [2] (B07) and in assay [4] (B15) were “+*(B07)” and “+(B15)”, respectively.
Take “5 (RPRKLPQL; Human papillomavirus 16) [compound 5]”: the presentation entry in the assay on HPV16-positive cells [1] was “+”. The ELISpot entry in assay [4] is listed as “+”.
On to “6 (LQPETTDLY; Human papillomavirus 16) [compound 6]”, for which the presentation entry with HPV16-positive cells [1] is given as “+”. In addition, in assay [2], the ELISpot entry is “+*”.
